{
  "source": "patent US20110136899A1",
  "about": "“COMBINATION OF DRONEDARONE WITH AT LEAST ONE DIURETIC, AND THERAPEUTIC USE THEREOF” (SANOFI-AVENTIS, priority 2008, published 2011)",
  "key": {"[1]": {"assay": "prospective, multinational, multicentre, double-blind clinical study versus placebo: prevention of cardiovascular hospitalizations or of mortality", "assay_type": "in vivo, patients", "design": "reduction in mortality from any cause: concentration or dose not given beside the values", "description": "The patients had to have a history of atrial fibrillation or flutter and/or could be in normal sinus rhythm or in atrial fibrillation or flutter at inclusion.\nThe patient recruitment was carried out by taking into account the following inclusion criteria:\nInclusion Criteria: • 1) One of the following risk factors had to be present: • age equal to or above 70, or even above 75, possibly combined with at least one of the risk factors below: • hypertension (taking antihypertensives of at least two different classes), • diabetes, • history of cerebral stroke (transient ischemic event or completed cerebral stroke) or of systemic embolism, • left atrial diameter greater than or equal to 50 mm measured by echocardiography, • left ventricular ejection fraction less than 40%, measured by two-dimensional echography; • 2) availability of an electrocardiogram carried out during the past 6 months in order to document the presence or the history of atrial fibrillation or flutter; • 3) availability of an electrocardiogram carried out during the past 6 months in order to document the presence or absence of normal sinus rhythm.\nTreatment was initiated using tablets containing either the placebo or an amount of dronedarone hydrochloride corresponding to 400 mg of dronedarone at a rate of one tablet in the morning during or shortly after breakfast and one tablet in the evening during or shortly after dinner.\nThe anticipated duration of the treatment was variable according to the time at which each patient was included in the study, and could range from a minimum of 12 months for the last patient included up to a maximum corresponding to the entire duration of the study (12 months+duration of inclusion), i.e. approximately 30 months for the first patients included.\nThe results obtained in this trial were analysed by the Kaplan Meier method for the figures, and the relative risk (RR) was estimated using Cox's proportional-effect regression model.\nThe relative risk (RR) is the ratio of the rates of occurrence of a hospitalization or of a death among the patients on dronedarone, relative to the patients on placebo.\nThe percentage reduction x of a given event (hospitalization, death, cardiovascular death, etc.) is calculated in the following way: […]"}, "[2]": {"assay": "regulation of the blood potassium level (regular blood samples taken throughout the clinical study)", "assay_type": "in vivo, patients", "settings": "after the 24th month, taking into account the starting value; compared to the placebo; p<0.0001", "text": "The potassium concentration-modulating effect is clearly documented in the study by virtue of the results of analyses of regular blood samples taken throughout the duration of the study in the context of the monitoring of vital parameters.\nThe variations in potassium (in mmol/l) between the first and the last administration of the medicament of the study are included in FIG. 8, in which B signifies basal level, D signifies day and M signifies month."}, "[3]": {"settings": "versus placebo, x=1−relative risk"}},
  "note": "Counter-ions that a name gives are not always drawn.",
  "data": [
    {"compound": "CCCCc1oc2ccc(NS(C)(=O)=O)cc2c1C(=O)c1ccc(OCCCN(CCCC)CCCC)cc1", "note": "[dronedarone hydrochloride]", "values": [
      {"measurement": "events (cardiovascular hospitalizations and mortality, principal judgment criterion)", "setting": "[1]; 2301 patients in treated group, 400 mg dronedarone twice daily, placebo group 917 events", "value": 734},
      {"measurement": "sudden deaths", "setting": "[1]; 2301 patients in treated group, placebo group 35 sudden deaths", "value": 14},
      {"measurement": "cardiovascular deaths", "setting": "[1]; 2301 patients in treated group, placebo group 94 cardiovascular deaths", "value": 65},
      {"measurement": "deaths (mortality from any cause)", "setting": "[1]; 2301 patients in treated group, placebo group 139 deaths", "value": 116},
      {"measurement": "events (cardiovascular hospitalizations)", "setting": "[1]; 2301 patients in treated group, placebo group 859 events", "value": 675},
      {"measurement": "events (cardiovascular hospitalizations and sudden death)", "setting": "[1]; 2301 patients in treated group, placebo group 873 events", "value": 684},
      {"measurement": "events (cardiovascular hospitalizations and cardiovascular mortality)", "setting": "[1]; 2301 patients in treated group, placebo group 892 events", "value": 701},
      {"measurement": "relative risk (sudden death)", "setting": "[1]; versus placebo, Cox model, p=0.0031", "value": 0.405},
      {"measurement": "relative risk (cardiovascular mortality)", "setting": "[1]; versus placebo, Cox model, p=0.0252", "value": 0.698},
      {"measurement": "relative risk (mortality from any cause)", "setting": "[1]; versus placebo, Cox model, p=0.1758", "value": 0.844},
      {"measurement": "relative risk (cardiovascular hospitalizations and deaths)", "setting": "[1]; versus placebo, Cox model, p=2×10^−8", "value": 0.758},
      {"measurement": "relative risk (cardiovascular hospitalizations)", "setting": "[1]; versus placebo, Cox model, p=9×10^−9", "value": 0.745},
      {"measurement": "relative risk (cardiovascular hospitalizations and cardiovascular deaths)", "setting": "[1]; versus placebo, Cox model, p=45×10^−10", "value": 0.745},
      {"measurement": "relative risk (cardiovascular hospitalizations and sudden deaths)", "setting": "[1]; versus placebo, Cox model, p=48×10^−10", "value": 0.743},
      {"measurement": "reduction in cardiovascular hospitalizations", "setting": "[1]; [3]", "value": 25.5, "unit": "%"},
      {"measurement": "reduction in cardiovascular hospitalizations and cardiovascular deaths", "setting": "[1]; [3]", "value": 25.5, "unit": "%"},
      {"measurement": "reduction in cardiovascular hospitalizations and deaths", "setting": "[1]; [3]", "value": 24.2, "unit": "%"},
      {"measurement": "reduction in cardiovascular hospitalizations and sudden deaths", "setting": "[1]; [3]", "value": 25.5, "unit": "%"},
      {"measurement": "reduction in cardiovascular mortality", "setting": "[1]; [3]", "value": 30.2, "unit": "%"},
      {"measurement": "reduction in mortality from any cause", "setting": "[1]; [3]", "value": 15.6, "unit": "%"},
      {"measurement": "reduction in sudden death", "setting": "[1]; [3]", "value": 59.5, "unit": "%"}
    ]},
    {"compound": "CCCCc1oc2ccc(NS(C)(=O)=O)cc2c1C(=O)c1ccc(OCCCN(CCCC)CCCC)cc1", "note": "[dronedarone, 2-n-Butyl-3-[4-(3-di-n-butylaminopropoxy)benzoyl]-5-methylsulphonamidobenzofuran]", "values": [
      {"measurement": "reduction in the risk of sudden death", "setting": "[1]; hypertensive patients", "value": "approximately 62%"},
      {"measurement": "reduction in the risk of sudden death", "setting": "[1]; patients not taking diuretics, compared with the placebo", "value": "approximately 34%"},
      {"measurement": "reduction in the risk of sudden death", "setting": "[1]; patients on diuretics, compared with the placebo", "value": "approximately 70.4%"},
      {"measurement": "reduction in the risk of sudden death", "setting": "[1]; patients who were not hypertensive", "value": "approximately 45.5%"},
      {"measurement": "change in blood potassium level (analysis of covariance)", "setting": "[2]", "value": "significant different in favour of dronedarone"}
    ]}
  ]
}
